Literature values, collected in patent US20260166148A1, “MAGNETOSTRICTIVE PIEZOELECTRIC NANOASSEMBLY AS CANCER CHEMOTHERAPEUTIC” (GRANT DEMARTINO INDUSTRIES LLC, priority 2021, published 2026).

Columns and labels:
[1] = as studied by Jun Yang et al. [18]

water solubility [1]	Structure (SMILES)	IC50 values in human tumor cells (human tumor cells; when activated (photosensitizer irradiated))	apoptosis induction, killing the cells (cellular effect) (human tumor cells; when activated, human tumor cells)
excellent	CC(C)(N=NC(C)(C)C1=NCCN1)C1=NCCN1.Cl.Cl [AIPH, 2,2′-Azobis(2-(2-imidazolin-2-yl)propane) dihydrochloride]	–	–
–	COc1ccc(C2=[N+]3C(=Nc4c(-c5ccccc5)c(Br)c(-c5ccc(OC)cc5)n4[B-]3(F)F)C(c3ccccc3)=C2Br)cc1 [ADPM06]	micromolar range	induces apoptosis
